Tests used:
Assay in all cases: relative viability (nuclei count vs DMSO), 5 days (fraction); higher = more cells survive
[1] = compound: CCN1C(=O)C2=CC(=C(N=C2N(C1=O)C3CC3)N)C(=O)N + CC(=O)Nc1cccc(-n2c(=O)n(C3CC3)c(=O)c3c(Nc4ccc(I)cc4F)n(C)c(=O)c(C)c32)c1 [Trametinib] (partner 0.02 µM)
How it was run: (§1)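 Relative viability equals treated-well nuclei counts divided by vehicle-well nuclei counts. Counts came from 4× images of lung cancer cell lines grown in 1536-well plates for 5 days after pin-tool dosing on the day after seeding. Dosing used one drug alone or a fixed anchor-drug dose plus five library-drug doses (not always all listed) in √10 steps, and values are medians of duplicate plates.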

[2] = compound: CCN1C(=O)C2=CC(=C(N=C2N(C1=O)C3CC3)N)C(=O)N + C[C@@H](Oc1cc(-c2cnn(C3CCNCC3)c2)cnc1N)c1c(Cl)ccc(F)c1Cl [Crizotinib] (partner 1 µM)
How it was run: as §1

[3] = compound: CCN1C(=O)C2=CC(=C(N=C2N(C1=O)C3CC3)N)C(=O)N + C[C@]1(O)C[C@@H](c2nc(-c3ccc4ccc(-c5ccccc5)nc4c3)c3c(N)nccn32)C1 [Linsitinib] (partner 1 µM)
How it was run: as §1

[4] = compound: CCN1C(=O)C2=CC(=C(N=C2N(C1=O)C3CC3)N)C(=O)N + Nc1nc2[nH]cc(CCc3ccc(C(=O)N[C@@H](CCC(=O)O)C(=O)O)cc3)c2c(=O)[nH]1 [Pemetrexed] (partner 0.2 µM)
How it was run: as §1

[5] = compound: CCN1C(=O)C2=CC(=C(N=C2N(C1=O)C3CC3)N)C(=O)N + O=C(c1cc(Cc2n[nH]c(=O)c3ccccc23)ccc1F)N1CCN(C(=O)C2CC2)CC1 [Olaparib] (partner 8 µM)
How it was run: as §1

Cell Line | relative viability ([1]; first compound 0.253 µM) | relative viability ([1]; first compound 2.53 µM) | relative viability ([1]; first compound 8 µM) | relative viability ([2]; first compound 0.253 µM) | relative viability ([2]; first compound 0.8 µM) | relative viability ([2]; first compound 2.53 µM) | relative viability ([2]; first compound 8 µM) | relative viability ([3]; first compound 0.253 µM) | relative viability ([3]; first compound 0.8 µM) | relative viability ([3]; first compound 2.53 µM) | relative viability ([3]; first compound 8 µM) | relative viability ([4]; first compound 0.253 µM) | relative viability ([4]; first compound 2.53 µM) | relative viability ([4]; first compound 8 µM) | relative viability ([5]; first compound 0.253 µM) | relative viability ([5]; first compound 2.53 µM) | relative viability ([5]; first compound 8 µM) | relative viability ([1]; first compound 0.8 µM) | relative viability ([4]; first compound 0.8 µM) | relative viability ([5]; first compound 0.8 µM)
PC-3 [JPC-3] | 0.686 | 0.686 | 0.736 | 1.04 | 0.953 | 0.914 | 0.94 | 0.982 | 0.933 | 0.92 | 0.919 | 1.1 | 1.26 | 1.2 | 1.13 | 1.18 | 1.21 | – | – | –
PC-14 | 0.743 | 0.768 | 0.715 | 0.973 | 0.939 | 0.845 | 0.941 | 0.96 | 0.973 | 0.948 | 0.929 | 0.133 | 0.141 | 0.149 | 0.196 | 0.306 | 0.308 | 0.721 | 0.14 | 0.26
RERF-LC-KJ | 0.697 | 0.751 | 0.847 | 0.783 | 0.842 | 0.796 | 0.858 | 0.846 | 0.864 | 0.843 | 0.817 | 0.473 | 0.472 | 0.481 | 0.887 | 0.883 | 0.897 | 0.793 | 0.448 | 0.89
SK-LU-1 | 0.482 | 0.516 | 0.489 | 1.11 | 0.749 | 0.805 | 0.931 | 1.02 | 1.14 | 1.23 | 1.06 | 0.933 | 1 | 1.04 | 0.458 | 0.429 | 0.493 | 0.555 | 1.06 | 0.446
SK-MES-1 | 0.625 | 0.557 | 0.517 | 1.02 | 0.966 | 0.926 | 0.946 | 1.07 | 0.984 | 1.02 | 1.13 | 0.981 | 0.858 | 0.882 | 0.77 | 0.713 | 0.665 | 0.533 | 0.911 | 0.76
SW 1573 | 0.548 | 0.599 | 0.52 | 0.855 | 0.744 | 0.696 | 0.772 | 0.817 | 0.729 | 0.797 | 0.781 | 0.855 | 0.844 | 0.791 | 0.748 | 0.519 | 0.532 | 0.601 | 0.884 | 0.431
UMC-11 | 0.798 | 0.695 | 0.636 | 0.619 | 0.632 | 0.584 | 0.611 | 0.981 | 1.01 | 1.13 | 1.15 | 0.867 | 0.761 | 0.845 | 0.376 | 0.312 | 0.365 | 0.701 | 0.846 | 0.337
